Consider 2 molecules from US6017933A, “Mannich bases of conjugated styryl ketones” (University of Saskatchewan Technologies Inc., priority 1999, dated 2000).

Molecules are shown by their SMILES. Values joined by “and” are separate entries in the source; they are usually repeats but may differ in a detail not shown here. Identical values can stand only once. “Also recorded” adds a separate entry of the source. Counter-ions that a name gives are not always drawn. Like-named read-outs stand apart in the source and are kept apart here. Some results are limits rather than exact numbers.

The subject of data set [1] is Aspergillus fumigatus. Put plainly: Murine pulmonary aspergillosis model. The format is in vivo, Aspergillus fumigatus in DBA/2J female mice. How it is done:
In vivo susceptibility studies: DBA/2J female mice (Jackson Laboratories) weighing 20-23 grams (≈6 weeks old) were used. The mice were immunosuppressed by 3 consecutive subcutaneous injections (0.5 ml each) of cortisone acetate (250 mg/kg; Sigma Chemical Company) in sterile distilled water containing 0.1% Tween 80. The immunosuppressed mice were anesthetized by exposing to ether in a desiccator for 45±5 seconds and infected with 20 μl inoculum containing 1×10^6 conidia delivered to the nares of the animals as a single droplet from a micropipet. Compound 9b and AMB were dissolved in dimethyl sulfoxide (DMSO) and administered 24 hr post infection by intraperitoneal injection in 0.2 ml PBS per dose. […] The efficacy of chemotherapy was assessed by determining percent survival and the fungal load (CFU/lungs) of infected animals as determined by semiquantitative organ culture.

For data set [2], the system named is ITZ-resistant Aspergillus fumigatus. Put plainly: MIC and MLC, ITZ-resistant Aspergillus fumigatus, broth macrodilution. Conditions: for MIC: 48 h.
The test system of a further data set is human tumors. Put plainly: Cytotoxicity, human tumor cell line panel (approximately 55 lines).
Another data set has as its system Molt 4/C8 cells. Put plainly: Cytotoxicity, Molt 4/C8 human T-lymphocytes.
Data set [3] deals with Aspergillus fumigatus conidia. As to the kind of experiment: Kill-curve experiment, Aspergillus fumigatus conidia. The format is cell-based. Here is the method:
Kill-Curve Experiment: 5 ml conidial suspension each of the AMB-, and ITZ-susceptible (W73355) and the resistant (AB16.4 and ITZ70) isolates prepared in PYG broth (1×10^6 conidia/ml) was incubated at 35° C. in the presence of 5 μm of AMB or 5 μm ITZ or 50 μm Compound 9b. At various time intervals, 0.1 ml aliquots of the conidial suspension were removed, diluted appropriately to obtain 10^2 to 10^4 fold dilution, and 0.1 ml aliquots were spread in duplicate on PYG agar plates. […] Identical treatment of the conidial suspension in the absence of the drug was used as the growth control.

The subject of the next data set is P388 cells. As to the kind of experiment: Cytotoxicity, murine P388 leukemic cells (P388 D1). Conditions: read-out: P388 cells IC50.
Another data set concerns Candida albicans. Put plainly: Vaginal candidiasis in ovariectomized rats. Particulars: in Mineral Oil. The format is in vivo, Candida albicans in ovariectomized rats. Here is the method:
As well, ovariectomized rats predisposed for Candida albicans infection by estrogen treatment were infected vaginally with 1×10^7 CFU per ml to produce vaginal candidiasis. The infected animals were treated with Compound 9b once daily (100 mg/kg=2 mg/[…]) for 5 days. Vaginal fluid was collected from each animal 72 hr post-treatment and CFUs per rat were determined by plating the […] fluid on PYG agar containing 200 ug/ml gentamicin.

A further data set relates to CEM cells. Put plainly: Cytotoxicity, CEM human T-lymphocytes. Conditions: for IC50: Homo sapiens, CCRF-CEM.
Data set [4] concerns Aspergillus fumigatus. Put plainly: MIC and MLC, Aspergillus fumigatus, broth macrodilution.
For data set [5], the system named is pathogenic yeasts and filamentous fungi. As to the kind of experiment: Screening of conjugated styryl ketones against pathogenic yeasts and filamentous fungi. The format is cell-based. The text has this:
Approximately 90 compounds belonging to the conjugated styryl ketone class were screened for their activity against pathogenic yeasts and filamentous fungi. […] Since none of the previously examined compounds provided encouraging results for further studies, a series of α,β-unsaturated ketones with two sites for thiol alkylation reaction were synthesized.

The subject of another data set is L1210 cells. As to the kind of experiment: Cytotoxicity, murine L1210 leukemic cells. Particulars: Mus musculus, mean. The format is cell-based.
Data set [6] concerns AMB-resistant Aspergillus fumigatus. Put plainly: MIC and MLC, AMB-resistant Aspergillus fumigatus, broth macrodilution. Particulars: for MIC: 48 h.
Data set [7] has as its system proton translocating ATPase of Saccharomyces cerevisiae. Conditions: cited from earlier work.

On to `CCN1CCC(O)(/C=C/c2ccc(Cl)cc2)C(C(=O)/C=C/c2ccc(Cl)cc2)C1` (centres unmarked) [Compound 9b, (3-[3-(4-chlorophenyl)-2-propenoyl]-4-[2-(4-chlorophenyl)vinylene]-1-ethyl-4-piperidinol hydrochloride], for which, in the data set with Aspergillus fumigatus [1] (6.25 mg/kg/day), the “reduction in CFU/lung” value amounted to 50%. Besides, the mortality rate entry with Aspergillus fumigatus [1] (6.5 mg/kg/day for five days, mice) is reported as “did not show any greater mortality rate than the placebo or the AMB-treated groups”. In addition, the “fungal load of infected animals (in words)” value with Aspergillus fumigatus [1] (mouse, in vivo, hydrochloride) is given as “reduced significantly; also recorded: not as efficient as AMB for the reduction of fungal load”. Besides, the “survival of infected animals” value in the data set with Aspergillus fumigatus [1] (vs DMSO placebo) is recorded as “did not improve significantly over the placebo group”. Besides, the MIC in [2] (read-out: MIC Mean ± SD) was 10.9 ± 6.35 µM; in [2] (read-out: MIC Range), 3.12 to 25 µM; in the data set on Aspergillus fumigatus [4] (Aspergillus fumigatus, 48 h, read-out: MIC Mean ± SD), 11.9 ± 5.32 µM; in the data set on Aspergillus fumigatus [4] (Aspergillus fumigatus, 48 h, read-out: MIC Range), 6.25 to 25 µM; with Aspergillus fumigatus [4] (Aspergillus fumigatus, read-out: mean MIC value) it was 11.9 µM; in [6] (read-out: MIC Mean ± SD) it was 9.85 ± 3.53 µM. The MIC in data set [6] (read-out: MIC Range) was in the range of 6.25 to 12.5 µM. The MFC in [2] (read-out: MLC Range) is 6.25 to 25 µM; in the data set on Aspergillus fumigatus [4] (Aspergillus fumigatus, read-out: MLC Range), 12.5 to 25 µM; in data set [6] (read-out: MLC Range), 12 to 25 µM. Also, the “IC50 relative to mean MIC for Aspergillus fumigatus” value in the data set with human tumors (mammalian cells (human tumor; b359 also Molt 4/C8 and CEM)) is on record as 2-3 fold. In addition, the IC50 in the data set with human tumors (read-out: human tumors IC50, mean graph midpoint, approximately 55 cell lines, hydrobromide salts used for 4a, 11a-e) is 25.7 µM; in the data set on human tumors (read-out: mean IC50 value for 55 different human tumour cells) it was 25.7 µM; with Molt 4/C8 cells (read-out: IC50 Molt 4/C8), 31.1 µM; with Molt 4/C8 cells (read-out: Molt 4/C8 cells IC50), 31.1 µM; in the data set on P388 cells, 1.1 µM; in the data set on CEM cells (read-out: CEM cells IC50), 20.1 µM. For the same molecule, the IC50 in the data set on CEM cells (read-out: IC50 CEM) turned out to be 20.1 µM; with L1210 cells it was 6.96 µM. The “TIL1210 (Molt 4/C8 cells)” value with Molt 4/C8 cells (IC50 T-lymphocytes (Molt 4/C8)/IC50 L1210) is given as 4.46. Further, the “TIP388 (Molt 4/C8 cells)” value in the data set on Molt 4/C8 cells (IC50 T-lymphocytes (Molt 4/C8)/IC50 P388) is 28.24. For the same molecule, the “TIht (Molt 4/C8 cells)” value with Molt 4/C8 cells (IC50 T-lymphocytes (Molt 4/C8)/IC50 human tumors) turned out to be 1.21. In addition, the killing at 50 µM in [3] (Aspergillus fumigatus, 50 μm, within 24 hr) was ≥ 90%. The “fungicidal activity against AMB-resistant and ITZ-resistant isolates” value in [3] (data not shown) is “as susceptible to the fungicidal activity of Compound 9b as the susceptible one”. The “% CFU reduction” value in the data set on Candida albicans is 97.4%. The “Mean Value CFU/rat” value with Candida albicans (mean of 6 animals, S.D. 1.7 × 10^4) was 1.2 × 10^4 CFU/rat. Also, the CFU/rat in the data set on Candida albicans (individual animals, 100 mg/kg once daily for 5 days, 72 hr post-treatment, hydrochloride, 100 mg/kg) is 4.6 × 10^4 CFU/rat and 4.2 × 10^3 CFU/rat and 8.3 × 10^2 CFU/rat and 1.7 × 10^4 CFU/rat and 3.5 × 10^2 CFU/rat and 6.5 × 10^3 CFU/rat. Also, in the data set with CEM cells (IC50 T-lymphocytes (CEM)/IC50 L1210), the “TIL1210 (CEM cells)” value is on record as 2.89. In addition, the “TIP388 (CEM cells)” value in the data set on CEM cells (IC50 T-lymphocytes (CEM)/IC50 P388) is reported as 18.31. Also, the “TIht (CEM cells)” value in the data set with CEM cells (IC50 T-lymphocytes (CEM)/IC50 human tumors) amounted to 0.78. Besides, in the data set on Aspergillus fumigatus [4] (susceptible isolates), the “effectiveness compared with ITZ and AMB” value was “less effective than ITZ and AMB in susceptible isolates”. In addition, in the data set on Aspergillus fumigatus [4] (various Aspergillus fumigatus isolates), the “MLC values relative to MIC values” is on record as “either the same as or twofold higher than the MIC values”. Also, the “antifungal activity (in words)” value in data set [5] was “activity against both pathogenic yeasts and filamentous fungi at low concentrations”.
On to `COc1ccc2[nH]c([S+]([O-])Cc3ncc(C)c(OC)c3C)nc2c1` (centres unmarked) [omeprazole], for which the “inhibition of proton translocating ATPase” value in data set [7] is listed as “inhibited the proton translocating ATPase of Saccharomyces cerevisiae”.

The MIC is the least concentration at which growth counts as inhibited.
